Laboratory results published in patent publication US20210369675A1, “ANTIMICROBIAL DRUG METHODS OF USE & THERAPEUTIC COMPOSITIONS” (priority 2017, published 2021).
“Also recorded” adds a separate entry of the source.

How the values were obtained:
Brucella melitensis = settings: cited from earlier work
[1] = system: Burkholderia pseudomallei; settings: cited from earlier work
[2] = current 300 mg capsule formulation, per product label; cited from earlier work
[3] = cited from earlier work; for elimination half-life (T1/2): after a single administration of rac-ornidazole in a formulation; for AUC0-∞: after a single administration
[4] = system: Burkholderia pseudomallei; type: cell-based

Compound: CC(C)(O/N=C(\C(=O)N[C@@H]1C(=O)N2C(C(=O)[O-])=C(C[n+]3ccccc3)CS[C@H]12)c1csc(N)n1)C(=O)O [ceftazidime]
- effectiveness of conventional antibiotics against B. melitensis (Brucella melitensis): not effective
- effectiveness of conventional antibiotics against B. pseudomallei [1]: not effective

Compound: C[C@H](CCC(=O)O)[C@H]1CC[C@H]2[C@@H]3[C@@H](O)C[C@@H]4C[C@H](O)CC[C@]4(C)[C@H]3CC[C@]12C [Ursodiol, ursodeoxycholic acid]
- fraction of drug absorbed in the small intestines (small bowel) [2]: 90%
- fraction of drug reaching the colon [2]: less than 10%

Compound: Cc1ncc([N+](=O)[O-])n1C[C@@H](O)CCl [(R)-ornidazole]
- elimination half-life (T1/2) [3]: similar
- AUC0-∞ [3]: similar

Compound: Cc1ncc([N+](=O)[O-])n1CC(O)CCl (racemic) [(rac)-ornidazole, 1-chloro-3-(2-methyl-5-nitro-1H-imidazol-1-yl)propan-2-ol]
- inhibition of B. pseudomallei grown under anaerobic conditions [4]: inhibition; also recorded: effectively inhibited

Compound: Cc1ncc([N+](=O)[O-])n1C[C@H](O)CCl [(S)-ornidazole]
- elimination half-life (T1/2) [3]: similar
- AUC0-∞ [3]: similar

Compound: trimethoprim-sulfamethoxazole
- effectiveness of conventional antibiotics against B. melitensis (Brucella melitensis): not effective
- effectiveness of conventional antibiotics against B. pseudomallei [1]: not effective

Compound: O=C(N[C@H](CO)[C@H](O)c1ccc([N+](=O)[O-])cc1)C(Cl)Cl [chloramphenicol]
- effectiveness of conventional antibiotics against B. melitensis (Brucella melitensis): not effective
- effectiveness of conventional antibiotics against B. pseudomallei [1]: not effective
